Test results as given in patent US8852554B2, “Radiolabelled PDE10 ligands” (Janssen Pharmaceutica NV, priority 2009, dated 2014).
Values joined by “and” are separate entries in the source; they are usually repeats but may differ in a detail not shown here. Equal values may be shown once.

Assay: Biodistribution studies of the 18F tracers in rats
Assay type: in vivo, male Wistar rats
Conditions: rat, i.v.
Procedure: Biodistribution studies were carried out in healthy male Wister rats (body weight 200-500 g) at 2 min, 30 min and 60 min post injection (p.i.) (n=3/time point). For |^18F|B-4 only the 2 min and 30 min time points were studied. […] Blood and major organs were collected in tared tubes and weighed. The radioactivity in blood, organs and other body parts was measured using an automated gamma counter. The distribution of radioactivity in different parts of the body at different time points p.i. of the tracer was calculated and expressed as percentage of injected dose (% ID), and as percentage of injected dose per gram tissue (% ID/g) for the selected organs. % ID is calculated as cpm in organ/total cpm recovered. For calculation of total radioactivity in blood, blood mass was assumed to be 7% of the body mass.

Compound: Cc1cccc(COc2ccc(-c3nn(CC[18F])cc3-c3ccncc3)cc2)n1 [[^18F]B-1]
- % ID/g normalized for body weight, Cerebellum (30 min p.i.): 0.041 ± 0.01 % ID/g × body wt. in kg
- % ID/g normalized for body weight, Cerebrum + Cerebellum (30 min p.i.): 0.04 ± 0.01 % ID/g × body wt. in kg
- % ID/g normalized for body weight, Cerebrum total (30 min p.i.): 0.042 ± 0.01 % ID/g × body wt. in kg
- % ID/g normalized for body weight, Cortex (30 min p.i.): 0.057 ± 0.01 % ID/g × body wt. in kg
- % ID/g normalized for body weight, Heart (30 min p.i.): 0.07 ± 0.01 % ID/g × body wt. in kg
- % ID/g normalized for body weight, Hippocampus (30 min p.i.): 0.027 ± 0.01 % ID/g × body wt. in kg
- % ID/g normalized for body weight, Kidneys (30 min p.i.): 0.17 ± 0.01 % ID/g × body wt. in kg
- % ID/g normalized for body weight, Liver (30 min p.i.): 1.02 ± 0.13 % ID/g × body wt. in kg
- % ID/g normalized for body weight, Lungs (30 min p.i.): 0.08 ± 0.02 % ID/g × body wt. in kg
- % ID/g normalized for body weight, Rest of cerebrum (30 min p.i.): 0.039 ± 0.01 % ID/g × body wt. in kg
- % ID/g normalized for body weight, Spleen + Pancreas (30 min p.i.): 0.11 ± 0.02 % ID/g × body wt. in kg
- % ID/g normalized for body weight, Striatum (30 min p.i.): 0.070 ± 0.01 % ID/g × body wt. in kg
- % ID/g, Blood (30 min p.i.): 0.12 ± 0.01 % ID/g
- % ID/g, Cerebellum (30 min p.i.): 0.145 ± 0.020 % ID/g
- % ID/g, Cerebrum + Cerebellum (30 min p.i.): 0.15 ± 0.02 % ID/g
- % ID/g, Cerebrum total (30 min p.i.): 0.148 ± 0.014 % ID/g
- % ID/g, Cortex (30 min p.i.): 0.204 ± 0.016 % ID/g
- % ID/g, Heart (30 min p.i.): 0.24 ± 0.03 % ID/g
- % ID/g, Hippocampus (30 min p.i.): 0.096 ± 0.012 % ID/g
- % ID/g, Kidneys (30 min p.i.): 0.61 ± 0.11 % ID/g
- % ID/g, Liver (30 min p.i.): 3.72 ± 0.87 % ID/g
- % ID/g, Lungs (30 min p.i.): 0.27 ± 0.04 % ID/g
- % ID/g, Rest of cerebrum (30 min p.i.): 0.138 ± 0.013 % ID/g
- % ID/g, Spleen + Pancreas (30 min p.i.): 0.39 ± 0.04 % ID/g
- % ID/g, Striatum (30 min p.i.): 0.250 ± 0.029 % ID/g
- radioactivity concentration, all studied brain regions (30 min p.i.): ≤ 0.07 % ID/g corrected for body weight
- striatum/blood ratio (from % ID/g normalized for body weight) (30 min p.i.): 2.05
- striatum/cerebellum ratio (from % ID/g normalized for body weight) (30 min p.i.): 1.72
- striatum/hippocampus ratio (from % ID/g normalized for body weight) (30 min p.i.): 2.59
- % ID in liver and intestines (60 min p.i.): 54 % ID
- % ID in the urinary system (60 min p.i.): ~2.6 % ID
- % ID, Blood (60 min p.i.): 2.2 % ID and 2.16 ± 0.4 % ID
- % ID, Carcass (60 min p.i.): 23.68 ± 3.9 % ID
- % ID, Cerebellum (60 min p.i.): 0.023 ± 0.005 % ID
- % ID, Cerebrum total (60 min p.i.): 0.145 ± 0.032 % ID
- % ID, Cortex (60 min p.i.): 0.018 ± 0.004 % ID
- % ID, Heart (60 min p.i.): 0.16 ± 0.0 % ID
- % ID, Hippocampus (60 min p.i.): 0.005 ± 0.001 % ID
- % ID, Intestines (60 min p.i.): 19.61 ± 1.5 % ID
- % ID, Kidneys (60 min p.i.): 1.38 ± 0.1 % ID
- % ID, Liver (60 min p.i.): 34.49 ± 8.0 % ID
- % ID, Lungs (60 min p.i.): 0.26 ± 0.1 % ID
- % ID, Rest of cerebrum (60 min p.i.): 0.116 ± 0.027 % ID
- % ID, Spleen + Pancreas (60 min p.i.): 0.43 ± 0.1 % ID
- % ID, Stomach (60 min p.i.): 17 % ID and 16.74 ± 4.6 % ID
- % ID, Striatum (60 min p.i.): 0.006 ± 0.002 % ID
- % ID, Urine (60 min p.i.): 1.22 ± 0.2 % ID
- % ID/g normalized for body weight, Blood (60 min p.i.): 0.03 ± 0.01 % ID/g × body wt. in kg
- % ID/g normalized for body weight, Cerebellum (60 min p.i.): 0.025 ± 0.01 % ID/g × body wt. in kg
- % ID/g normalized for body weight, Cerebrum + Cerebellum (60 min p.i.): 0.03 ± 0.01 % ID/g × body wt. in kg
- % ID/g normalized for body weight, Cerebrum total (60 min p.i.): 0.033 ± 0.01 % ID/g × body wt. in kg
- % ID/g normalized for body weight, Cortex (60 min p.i.): 0.036 ± 0.01 % ID/g × body wt. in kg
- % ID/g normalized for body weight, Heart (60 min p.i.): 0.05 ± 0.01 % ID/g × body wt. in kg
- % ID/g normalized for body weight, Hippocampus (60 min p.i.): 0.023 ± 0.02 % ID/g × body wt. in kg
- % ID/g normalized for body weight, Kidneys (60 min p.i.): 0.15 ± 0.01 % ID/g × body wt. in kg
- % ID/g normalized for body weight, Liver (60 min p.i.): 0.81 ± 0.13 % ID/g × body wt. in kg
- % ID/g normalized for body weight, Lungs (60 min p.i.): 0.05 ± 0.02 % ID/g × body wt. in kg
- % ID/g normalized for body weight, Rest of cerebrum (60 min p.i.): 0.034 ± 0.01 % ID/g × body wt. in kg
- % ID/g normalized for body weight, Spleen + Pancreas (60 min p.i.): 0.08 ± 0.02 % ID/g × body wt. in kg
- % ID/g normalized for body weight, Striatum (60 min p.i.): 0.051 ± 0.01 % ID/g × body wt. in kg
- % ID/g, Blood (60 min p.i.): 0.10 ± 0.02 % ID/g
- % ID/g, Cerebellum (60 min p.i.): 0.079 ± 0.021 % ID/g
- % ID/g, Cerebrum + Cerebellum (60 min p.i.): 0.10 ± 0.03 % ID/g
- % ID/g, Cerebrum total (60 min p.i.): 0.105 ± 0.035 % ID/g
- % ID/g, Cortex (60 min p.i.): 0.113 ± 0.031 % ID/g
- % ID/g, Heart (60 min p.i.): 0.15 ± 0.04 % ID/g
- % ID/g, Hippocampus (60 min p.i.): 0.074 ± 0.050 % ID/g
- % ID/g, Kidneys (60 min p.i.): 0.46 ± 0.02 % ID/g
- % ID/g, Liver (60 min p.i.): 2.53 ± 0.23 % ID/g
- % ID/g, Lungs (60 min p.i.): 0.16 ± 0.05 % ID/g
- % ID/g, Rest of cerebrum (60 min p.i.): 0.107 ± 0.030 % ID/g
- % ID/g, Spleen + Pancreas (60 min p.i.): 0.26 ± 0.07 % ID/g
- % ID/g, Striatum (60 min p.i.): 0.162 ± 0.042 % ID/g
- striatum/blood ratio (from % ID/g normalized for body weight) (60 min p.i.): 1.66
- striatum/cerebellum ratio (from % ID/g normalized for body weight) (60 min p.i.): 2.06
- striatum/hippocampus ratio (from % ID/g normalized for body weight) (60 min p.i.): 2.24
- % ID in the carcass (at all time points examined): ~28 % ID
- maximum striatum-to-cerebellum ratio (biodistribution 2-60 min p.i.): about 2
